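Five concentrations, 48 hours, 96-well plates. GI50 = concentration required for 50% inhibition of growth.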 Calls of active or inactive are those of the source. Cut-off read from the data, not from the text of the source: active = GI50 up to about 1.1 µM and inactive = higher.
What was measured:
Assay in all cases: NCI tumour cell line growth inhibition, 48 h
HL-60 = tested on: HL-60
NCI-H460 = tested on: NCI-H460
A549 = tested on: A549
HOP-62 = tested on: HOP-62
M14 = tested on: M14
RPMI-8226 = tested on: RPMI-8226
PC-3 = tested on: PC-3
SK-MEL-5 = tested on: SK-MEL-5
EKVX = tested on: EKVX
COLO 205 = tested on: COLO 205
HCC 2998 = tested on: HCC 2998
SF-268 = tested on: SF-268
SR = tested on: SR
UO-31 = tested on: UO-31
MDA-MB-435 = tested on: MDA-MB-435
KM12 = tested on: KM12
UACC-62 = tested on: UACC-62
NCI-H23 = tested on: NCI-H23
A498 = tested on: A498
RXF 393 = tested on: RXF 393

SMILES | GI50 (HL-60) | GI50 (NCI-H460) | GI50 (A549) | GI50 (HOP-62) | GI50 (M14) | GI50 (RPMI-8226) | GI50 (PC-3) | GI50 (SK-MEL-5) | GI50 (EKVX) | GI50 (COLO 205) | GI50 (HCC 2998) | GI50 (SF-268) | GI50 (SR) | GI50 (UO-31) | GI50 (MDA-MB-435) | GI50 (KM12) | GI50 (UACC-62) | GI50 (NCI-H23) | GI50 (A498) | GI50 (RXF 393)
COc1ccc2[nH]c3c(c2c1)CCn1c-3nc2ccccc2c1=O | > 25 µM (inactive) | > 25 µM (inactive) | > 25 µM (inactive) | > 25 µM (inactive) | > 25 µM (inactive) | > 25 µM (inactive) | > 25 µM (inactive) | > 25 µM (inactive) | > 25 µM (inactive) | > 25 µM (inactive) | > 25 µM (inactive) | > 25 µM (inactive) | > 25 µM (inactive) | > 25 µM (inactive) | > 25 µM (inactive) | > 25 µM (inactive) | – | – | – | –
CC(C)[Si](OC12CCC(CC1O)CC2CO)(C(C)C)C(C)C (centres undefined) | 1.34 µM (inactive) | 12.6 µM (inactive) | 10.4 µM (inactive) | 16.4 µM (inactive) | 15.1 µM (inactive) | 10.2 µM (inactive) | 11.8 µM (inactive) | 18.3 µM (inactive) | – | 18 µM (inactive) | – | 14.6 µM (inactive) | 7.55 µM (inactive) | 13.9 µM (inactive) | 16.1 µM (inactive) | 12.7 µM (inactive) | 14.9 µM (inactive) | 12.8 µM (inactive) | 16.7 µM (inactive) | –
Cc1cccc(/N=N/c2ccc(/N=N/c3c(O)ccc4ccccc34)cc2C)c1 | 33.5 µM (inactive) | > 100 µM (inactive) | 80 µM (inactive) | 22.4 µM (inactive) | 41.7 µM (inactive) | > 100 µM (inactive) | 88.3 µM (inactive) | > 100 µM (inactive) | 84.7 µM (inactive) | > 100 µM (inactive) | > 100 µM (inactive) | > 100 µM (inactive) | 21.4 µM (inactive) | > 100 µM (inactive) | > 100 µM (inactive) | > 100 µM (inactive) | 72.4 µM (inactive) | > 100 µM (inactive) | – | 27 µM (inactive)
O=C(O)CCC1NC(/C(=C/c2ccccc2O)NC(=O)c2ccccc2)OC1=O (centres undefined) | > 100 µM (inactive) | > 100 µM (inactive) | > 100 µM (inactive) | 17.5 µM (inactive) | > 100 µM (inactive) | > 100 µM (inactive) | > 100 µM (inactive) | > 100 µM (inactive) | > 100 µM (inactive) | > 100 µM (inactive) | > 100 µM (inactive) | 61.5 µM (inactive) | – | 18 µM (inactive) | 15.8 µM (inactive) | 4.57 µM (inactive) | > 100 µM (inactive) | > 100 µM (inactive) | > 100 µM (inactive) | 34.2 µM (inactive)
Nc1cc(CO)cc(Nc2c3ccccc3nc3ccccc23)c1 | > 100 µM (inactive) | 25.7 µM (inactive) | 18.2 µM (inactive) | 14.7 µM (inactive) | 17.3 µM (inactive) | 29.8 µM (inactive) | 15.5 µM (inactive) | 17 µM (inactive) | 16.8 µM (inactive) | 11.6 µM (inactive) | – | 17.9 µM (inactive) | 53 µM (inactive) | 18.4 µM (inactive) | 17 µM (inactive) | 16.3 µM (inactive) | 17.4 µM (inactive) | 15.9 µM (inactive) | 24.6 µM (inactive) | 16.8 µM (inactive)
O=C(O)C1(Nc2ccc(Cl)cc2)CCCC1 | 77.8 µM (inactive) | > 100 µM (inactive) | > 100 µM (inactive) | > 100 µM (inactive) | > 100 µM (inactive) | > 100 µM (inactive) | > 100 µM (inactive) | > 100 µM (inactive) | > 100 µM (inactive) | 33 µM (inactive) | – | > 100 µM (inactive) | > 100 µM (inactive) | > 100 µM (inactive) | > 100 µM (inactive) | > 100 µM (inactive) | > 100 µM (inactive) | > 100 µM (inactive) | > 100 µM (inactive) | > 100 µM (inactive)
[O-][n+]1onc2c1CCC(=N\O)/C2=N/Nc1ccccc1 | 49.4 µM (inactive) | > 100 µM (inactive) | > 100 µM (inactive) | > 100 µM (inactive) | > 100 µM (inactive) | > 100 µM (inactive) | > 100 µM (inactive) | > 100 µM (inactive) | > 100 µM (inactive) | > 100 µM (inactive) | – | > 100 µM (inactive) | > 100 µM (inactive) | > 100 µM (inactive) | > 100 µM (inactive) | > 100 µM (inactive) | > 100 µM (inactive) | > 100 µM (inactive) | > 100 µM (inactive) | > 100 µM (inactive)
c1ccc(C[N+]23C(CC[C@H]2c2ccccc2)CC[C@H]3c2ccccc2)cc1 (some centres undefined) | 11.2 µM (inactive) | – | 36.6 µM (inactive) | 33.5 µM (inactive) | 21.6 µM (inactive) | 2.94 µM (inactive) | 26.7 µM (inactive) | 5.43 µM (inactive) | 24 µM (inactive) | 11.2 µM (inactive) | – | 43.5 µM (inactive) | 21.4 µM (inactive) | > 100 µM (inactive) | 18.7 µM (inactive) | 21.8 µM (inactive) | – | – | > 100 µM (inactive) | 18.3 µM (inactive)
COc1cccc2c1OC(c1cccc3ccccc13)C([N+](=O)[O-])=C2 (centres undefined) | 0.612 µM (active) | 1.9 µM (inactive) | 1.95 µM (inactive) | 2.1 µM (inactive) | 1.31 µM (inactive) | 3.45 µM (inactive) | 0.902 µM (active) | 1.59 µM (inactive) | 3.07 µM (inactive) | 1.92 µM (inactive) | – | 2.96 µM (inactive) | 0.604 µM (active) | 1.44 µM (inactive) | 1.51 µM (inactive) | 1.63 µM (inactive) | 1.08 µM (active) | 1.84 µM (inactive) | – | 1.31 µM (inactive)
FC(F)(F)c1cc(Cl)cnc1N/N=C(/c1ccccc1)c1ccccn1 | – | 3.68 µM (inactive) | 3.03 µM (inactive) | 3.98 µM (inactive) | 0.719 µM (active) | 4.11 µM (inactive) | 3.54 µM (inactive) | 3.15 µM (inactive) | 1.03 µM (active) | 2.03 µM (inactive) | 8 µM (inactive) | 0.78 µM (active) | 0.708 µM (active) | 2.94 µM (inactive) | 4.85 µM (inactive) | 1.85 µM (inactive) | 3.27 µM (inactive) | 2.55 µM (inactive) | – | 9.66 µM (inactive)
CN(C)c1ccc(/C=C/C=c2/c3ccccc3n3c2cc(-c2ccccc2)[n+]3C)cc1 | 0.075 µM (active) | 0.307 µM (active) | 0.26 µM (active) | 0.303 µM (active) | 0.215 µM (active) | 0.149 µM (active) | 0.133 µM (active) | 0.169 µM (active) | 0.254 µM (active) | 0.0698 µM (active) | 0.303 µM (active) | 0.497 µM (active) | – | 0.333 µM (active) | 0.151 µM (active) | 0.0598 µM (active) | 0.217 µM (active) | 0.188 µM (active) | 0.387 µM (active) | 0.063 µM (active)
O=C(O)c1nc2cc(C(F)(F)F)ccc2nc1Nc1ccc(Cl)c(Cl)c1 | – | 13.5 µM (inactive) | 8.79 µM (inactive) | 14.5 µM (inactive) | 13 µM (inactive) | 6.78 µM (inactive) | 4.3 µM (inactive) | 17.7 µM (inactive) | 17.9 µM (inactive) | 16.6 µM (inactive) | – | 16.8 µM (inactive) | 21.6 µM (inactive) | 14.4 µM (inactive) | 5.12 µM (inactive) | 12.9 µM (inactive) | 12.3 µM (inactive) | 14.3 µM (inactive) | 15.8 µM (inactive) | 20.9 µM (inactive)
CN(C)CCCN1c2ccc3ccccc3c2Sc2cccc(Cl)c21 | 1.63 µM (inactive) | 1.77 µM (inactive) | 5.81 µM (inactive) | 2.85 µM (inactive) | 1.89 µM (inactive) | 1.78 µM (inactive) | 3.01 µM (inactive) | 3.83 µM (inactive) | 2.38 µM (inactive) | 1.85 µM (inactive) | 1.61 µM (inactive) | 5.69 µM (inactive) | – | 2.79 µM (inactive) | 1.98 µM (inactive) | 2.08 µM (inactive) | 2 µM (inactive) | 10.6 µM (inactive) | 9.82 µM (inactive) | 3.82 µM (inactive)
CN1CCC(O)(C(C)(C)C)CC1 | > 100 µM (inactive) | > 100 µM (inactive) | > 100 µM (inactive) | > 100 µM (inactive) | > 100 µM (inactive) | > 100 µM (inactive) | > 100 µM (inactive) | > 100 µM (inactive) | > 100 µM (inactive) | > 100 µM (inactive) | > 100 µM (inactive) | > 100 µM (inactive) | > 100 µM (inactive) | > 100 µM (inactive) | > 100 µM (inactive) | > 100 µM (inactive) | > 100 µM (inactive) | > 100 µM (inactive) | – | > 100 µM (inactive)
C#CCn1c(=O)c(Cl)cn(/C(=C/C(=O)OCC)C(=O)OCC)c1=O | 3.05 µM (inactive) | 32.4 µM (inactive) | 25 µM (inactive) | 20 µM (inactive) | 6.98 µM (inactive) | 1.91 µM (inactive) | 16.6 µM (inactive) | 16.9 µM (inactive) | 16.1 µM (inactive) | 1.04 µM (active) | – | 27.9 µM (inactive) | 2.32 µM (inactive) | 3.4 µM (inactive) | 18 µM (inactive) | 31.9 µM (inactive) | 15.8 µM (inactive) | 18.5 µM (inactive) | 22.9 µM (inactive) | 2.12 µM (inactive)

Reference: ChEMBL document CHEMBL1201862, “PubChem BioAssay data set” (2004)
